Tested on: HepG2 cells
Details: normoxia

Compound: COc1cccc2c1C(=O)c1c(O)c3c(c(O)c1C2=O)C[C@@](O)(C(=O)CO)C[C@@H]3O[C@H]1C[C@H](N)[C@H](O)[C@H](C)O1 [DOX, Doxorubicin]
- minimal concentration that diminished the growth of the treated cells (HepG2): 1 μm
- decrease of cell viability (HepG2 infected with vACE-NT, 72 h after administering DOX (1 μm)): 27%

Source: patent US20170247693A1 (priority 2016, published 2017)
